This passage reports TGI and GI50 results from PubChem BioAssay (NCI).

The structures appear in SMILES notation. Several values for one entry are separate records, joined by “and”; a condition that tells them apart may be missing. Identical values can stand only once.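 Method: 48-hour compound exposure of cells in 96-well plates, five concentrations, linear interpolation of endpoints. GI50 = concentration required for 50% inhibition of growth. TGI: concentration producing complete growth inhibition.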

Holding throughout (experiment): growth of human tumour cells (NCI), 48 h
In assay [1] the test system is UO-31 renal.
In assay [2] the test system is SNB-75 CNS.
In assay [3] the test system is HT29 colon.
In assay [4] the test system is U251 CNS.
For assay [5], the system named is KM12 colon.
Assay [6] relates to SK-MEL-28 melanoma.
Assay [7] has as its system T-47D breast.
The subject of assay [8] is COLO 205 colon.
Assay [9] deals with EKVX NSCLC.
Assay [10] has as its system ACHN renal.

With `COc1cc(OC)c(OC)cc1/C=C/c1cnnc2ccccc12`, the TGI in [1], in assay [2], in assay [3], in [4], in assay [5] and in assay [6] was greater than 10 µM throughout. Also, the TGI in assay [7], in assay [8], in assay [9] and in [10] was greater than 10 µM each time.
As for `CC(C)C(=O)c1c(C(F)(F)F)n([O-])c2cc(F)c(F)cc2[n+]1=O`, the GI50 was 0.568 µM in [1]; 1.08 µM in [2]; 0.168 µM in [3]; 0.2 µM in [4]; 1.83 µM in [5]; 0.55 µM in assay [6]. For the same compound, the GI50 in [7] was 1.26 µM; in assay [8], 0.427 µM; in [9] it was 1.53 µM; in assay [10], 0.155 µM. In addition, the TGI turned out to be 1.75 µM in assay [1]; 2.75 µM in assay [2]; 0.547 µM in [3]; 0.43 µM in assay [4]; 4.69 µM in assay [5]; 3.15 µM in assay [6]. Further, the TGI in [7] came to 3.96 µM; in [8], 1.66 µM; in assay [9] it was 3.4 µM; in [10], 0.324 µM.
Turning to `O=C(c1ccccc1)c1c(C(F)(F)F)n([O-])c2cc(C(F)(F)F)ccc2[n+]1=O`, the GI50 in assay [1] is 1.32 µM; in assay [2], 1.63 µM; in [3], 0.983 µM; in assay [4] it was 1.54 µM; in [5], 1.6 µM; in assay [6], 1.71 µM. Further, the GI50 in assay [7] was 1.46 µM; in assay [8], 1.41 µM; in [9] it was 1.73 µM; in assay [10], 1.54 µM. The TGI in assay [1] came out at 2.67 µM; in [2], 3.05 µM; in assay [3] it was 2.86 µM; in [4], 2.97 µM; in assay [5], 3.17 µM; in [6] it was 3.23 µM. In addition, the TGI in assay [7] is 3.38 µM; in assay [8] it was 3.27 µM; in assay [9] it was 3.42 µM; in assay [10], 2.93 µM.
For the compound `CC(=O)/C=C/C1=C(c2csc3ccccc23)c2ccccc2CC1`, the GI50 is 11.6 µM in [1]; 22.4 µM in assay [2]; 21.3 µM in [3]; 31.1 µM in assay [4]; 14.1 µM in assay [5]; 16.9 µM in [6]. Moreover, the GI50 in assay [7] is 22.6 µM; in [8], 20.5 µM; in [9], 30.4 µM; in [10], 25.4 µM. The TGI in assay [1] was 41.2 µM; in [2], greater than 100 µM; in assay [3] it was greater than 100 µM; in [4], greater than 100 µM; in assay [5], 33.8 µM; in assay [6], 37.1 µM. Besides, the TGI was greater than 100 µM in [7], 64.8 µM in [8], greater than 100 µM in assay [9] and 88.3 µM in assay [10].
Consider `CO/N=C(\C([O-])=N\[n+]1cnn(CC(=O)OC(C)(C)C)c1)c1csc(NC(c2ccccc2)(c2ccccc2)c2ccccc2)n1`, for which the TGI in assay [1], in [2], in assay [3], in assay [4], in assay [5] and in assay [6] was greater than 10 µM each time. Further, the TGI in assay [7], in assay [8], in assay [9] and in assay [10] was greater than 10 µM each time.
In the case of `CC(C)=CC(=O)N[C@H]1CC[C@]2(C)C3CC[C@]4(C)C(C(C)N(C)C)=CCC4C3CCC2[C@H]1O` (some centres undefined), the GI50 is 1.88 µM in assay [1]; 8.76 µM in [2]; 0.676 µM in assay [3]; 3.89 µM in [4]; 3.48 µM in [5]; 1.82 µM in assay [6]. In addition, the GI50 in assay [7] is 2.58 µM; in assay [8], 1.69 µM; in assay [9] it was 6.38 µM; in [10] it was 7.95 µM. The TGI came out at 4.51 µM in assay [1]; 21.8 µM in assay [2]; 2.92 µM in [3]; 15.9 µM in assay [4]; 14.2 µM in assay [5]; 3.4 µM in assay [6]. Besides, the TGI in [7] was 9.59 µM; in assay [8] it was 3.3 µM; in assay [9], 23.2 µM; in assay [10], 21.3 µM.
`Cn1c(-c2ccccc2)c(/C=C/C2=[N+](C)c3ccccc3C2(C)C)c2ccccc21`: the GI50 in assay [1] is 2.23 µM; in assay [2], 1.63 µM; in assay [3], 0.711 µM; in assay [4] it was 0.46 µM; in assay [5] it was 0.429 µM; in assay [6], 1.19 µM. Besides, the GI50 in assay [7] was 0.34 µM; in assay [8] it was 1 µM; in assay [9] it was 0.397 µM; in assay [10], 3.05 µM. Moreover, the TGI came to 7.3 µM in [1]; 10.7 µM in [2]; 7.59 µM in assay [3]; 12.8 µM in assay [4]; 1.94 µM in assay [5]; 11.8 µM in assay [6]. The TGI in assay [7] came to 9.07 µM; in [8], 2.47 µM; in assay [9], 10.4 µM; in [10] it was 11.7 µM.
For the compound `C=C1SC(=Nc2ccccc2Cl)N(C(=O)c2sc3ccccc3c2Cl)C12CCCCC2`, the GI50 is 2.33 µM in assay [1]; 14 µM in assay [2]; 6.71 µM in assay [3]; 4.42 µM in [4]; 4.73 µM in [5]; greater than 100 µM in assay [6]. Also, the GI50 in [7] is 3.35 µM; in assay [8], 8.5 µM; in [9] it was 3.2 µM; in [10] it was 4.89 µM. In addition, the TGI in [1], in assay [2], in [3], in assay [4], in assay [5] and in assay [6] was greater than 100 µM throughout. For the same compound, the TGI in assay [7] is greater than 100 µM; in assay [8], 22.4 µM; in [9], greater than 100 µM; in [10] it was greater than 100 µM.
Turning to `O=C(c1ccco1)c1c(C(F)(F)F)n([O-])c2cc(C(F)(F)F)ccc2[n+]1=O`, the GI50 in [1] is 0.517 µM; in assay [2] it was 1.55 µM; in [3], 1.25 µM; in assay [4], 0.46 µM; in assay [5], 0.516 µM; in [6], 1.67 µM. In addition, the GI50 is 0.355 µM in assay [7], 0.475 µM in assay [8], 0.859 µM in [9] and 0.338 µM in [10]. The TGI in [1] is 1.02 µM; in assay [2], 2.96 µM; in [3], 2.84 µM; in assay [4], 0.951 µM; in [5], 1.19 µM; in assay [6], 3.27 µM. Further, the TGI in assay [7] stood at 1.47 µM; in [8], 2 µM; in assay [9] it was 2.36 µM; in assay [10] it was 0.748 µM.
For the compound `CC(C)c1cccc(O)c(=O)c1`, the GI50 in assay [1] is 2.58 µg/mL; in [3] it was 1.34 µg/mL; in assay [4] it was 1.23 µg/mL; in [5], 2.41 µg/mL; in assay [6] it was 0.138 µg/mL; in assay [7] it was 0.0075 µg/mL. Further, the GI50 in assay [8] was 1.21 µg/mL; in [9] it was 1.45 µg/mL; in assay [10] it was 1.75 µg/mL. Besides, the TGI in assay [1] was 35.5 µg/mL and > 71.1 µM; in [2], greater than 92.6 µM; in assay [5], > 75 µg/mL and > 100 µM; in assay [7], 0.0075 µg/mL; in [10], 18.3 µg/mL and 48.9 µM.
For the compound `O=C(C#Cc1ccccc1)C1=Cc2ccccc2OC1`, the TGI in assay [1] was 5.34 µM; in assay [2] it was 13.3 µM; in assay [3] it was 5.02 µM; in assay [4], greater than 100 µM; in assay [5], 9.67 µM; in assay [6], greater than 65.7 µM. Further, the TGI in assay [7] is greater than 61.1 µM; in assay [8], 3.93 µM; in [9], 6.12 µM; in assay [10] it was 5.26 µM.
On to `CCCCCCCC(=O)SCC/C=C/[C@@H]1CC(=O)NCc2nc(cs2)C2=N[C@@](C)(CS2)C(=O)N[C@@H](C(C)C)C(=O)N1`, for which the GI50 in assay [1] was 0.741 µM; in assay [2], 0.0312 µM; in [3], less than 0.01 µM; in assay [4] it was 0.0318 µM; in assay [5], 0.0389 µM; in [6], 0.0185 µM. Besides, the GI50 in assay [7] was less than 0.0124 µM; in assay [8], 0.0114 µM; in [9], 0.0662 µM; in [10], 0.508 µM. Further, the TGI in assay [1] was 21.2 µM; in assay [2] it was greater than 69 µM; in assay [3], 0.0499 µM; in [4] it was 0.364 µM; in [5], greater than 100 µM; in assay [6] it was 25.8 µM. Moreover, the TGI in assay [7] was 0.0677 µM; in assay [8] it was 0.0302 µM; in assay [9] it was greater than 100 µM; in [10] it was 12 µM.
`O=CN1N=C(c2cccc(Nc3ccnc4cc(Cl)ccc34)c2)CC1c1ccccc1` (centres undefined): the GI50 in [1] was 0.408 µM; in assay [2], 0.191 µM; in assay [3], 0.327 µM; in assay [4] it was 0.358 µM; in assay [5], 0.315 µM; in [6] it was 0.65 µM. Also, the GI50 in [7] was 0.381 µM; in assay [8], 0.35 µM; in assay [9], 0.949 µM; in assay [10] it was 0.778 µM. For the same compound, the TGI in assay [1] is greater than 100 µM; in [2], 1.83 µM; in [3], 1.15 µM; in assay [4] it was 1.55 µM; in assay [5], 12.7 µM; in assay [6] it was 24.6 µM. The TGI in assay [7] is 9.59 µM; in [8], 2.76 µM; in assay [9], greater than 100 µM; in assay [10] it was greater than 79.4 µM.
For the compound `CCCCCCCC/C=C1\CCC(CN2CCOCC2)C1=O` (centres undefined), the TGI in [1] was 16.6 µM; in assay [2] it was 23.5 µM; in assay [3], 20.5 µM; in [4] it was 28 µM; in assay [5], 12.4 µM; in assay [6], 21.2 µM. The TGI in assay [7] stood at 4.57 µM; in assay [8], 17.3 µM; in [9], 32.9 µM; in assay [10] it was 30.1 µM.
As to `Cc1nc2ccccn2c1NC(=O)NNC(=S)Nc1ccc(F)cc1`, the GI50 in [1], in [2], in [3], in [4], in assay [5] and in assay [6] was greater than 100 µM throughout. The GI50 in [7], in assay [8], in [9] and in [10] was greater than 100 µM in each case. The TGI in assay [1], in [2], in assay [3], in assay [4], in [5] and in assay [6] was greater than 100 µM in each case. Moreover, the TGI in [7], in assay [8], in [9] and in assay [10] was greater than 100 µM in each case.
On to `O=C1C(=O)c2ccccc2C(O)=C1CCCc1ccc(C2CCCCC2)cc1`, for which the GI50 in assay [1] was 5 µM; in assay [2], 5.17 µM; in assay [3], 5.11 µM; in [4], 6.42 µM; in [5], 4.16 µM; in assay [6], 8.54 µM. Further, the GI50 is 3.2 µM in assay [7], 7.02 µM in [8], 3.22 µM in assay [9] and 5.15 µM in assay [10]. Moreover, the TGI is 23.2 µM in assay [1]; 91 µM in assay [2]; greater than 100 µM in assay [3]; greater than 100 µM in assay [4]; 17.9 µM in [5]; 27.2 µM in assay [6]. Also, the TGI in [7] is 35.7 µM; in assay [8], 34.8 µM; in assay [9], 20.9 µM; in assay [10] it was greater than 100 µM.
Take `NC(=O)c1cccc(OCC(O)CO)c1` (centres undefined): the TGI in assay [1], in assay [2], in [3], in [4], in assay [5] and in [6] was greater than 100 µM throughout. In addition, the TGI in [7], in [8], in [9] and in assay [10] was greater than 100 µM in each case.
